This data set relates to Huh7-1 cells. The experiment in a line: HCV Induced Cytotoxicity Test (Promega CytoTox 96 LDH release). The format is cell-based, human. Conditions: 5 day HCV-infected Huh7-1 cultures. The procedure:
Initially, 6×10^3 Huh7-1 cells are incubated overnight in each well of collagen-coated BioCoat 96-well plates (BD Biosciences, Bedford, Mass.) in 0.2 ml 10% medium composed of Dulbecco's modified Eagle's medium supplemented with 10% fetal bovine serum. Subsequently, at 2 day intervals, the cultures are replenished with fresh 0.2 ml 10% medium. After the cultures become confluent, they continue to be replenished at 2 day intervals with fresh 0.2 ml 10% medium that also includes 1% dimethyl sulfoxide (DMSO). After 20 days of these replenishments, the Huh7-1 cultures are incubated with fresh 1% medium (same as 10% medium except that the serum level is 1%) containing HCV at a multiplicity of infection (MOI) of 0.05 focus forming units (ffu)/cell. The HCV (JFH-1 wt Huh7) stock titer is 1.5×10^5 ffu/ml. The next day (day 1 post-infection) and 2 days later (day 3 post-infection) the media are replenished with fresh 1% medium containing the test compounds dissolved in DMSO. On the 5th day of treatment with the compounds, cell lysates are collected for RNA isolation and Real Time-quantitative Reverse Transcription Polymerase Chain Reaction (RT-qPCR) and culture media are collected for cytotoxicity analysis.
HCV Induced Cytotoxicity Test. To determine whether the compounds described herein are cytotoxic at the tested doses used, the Promega CytoTox 96 Non-Radioactive Cytotoxicity Assay kit (Promega, Madison, Wis.) is used. This kit measures lactate dehydrogenase (LDH) levels in the culture medium, which is released from cells due to plasma membrane integrity loss or necrosis. For this test, 50 uL samples of culture medium are collected from the same 5 day cultures used to examine the RNA levels shown previously.

[1] abbreviates: concentration ranges of 2.5 to 20 μM.

Regarding `Cc1ccc2occ(CN3C[C@H]4CC[C@]5(NC(=O)c6ccccc6N5)[C@H]4C3)c(=O)c2c1` [Example 3], the “toxicity in the assay (LDH levels in the culture medium)” value (“toxicity in the assay” for short) runs as follows: (at 25 μM) “limited toxicity”; under setting [1], “little to no toxicity”. Turning to `O=C1N[C@]2(CC[C@@H]3CN(Cc4cnc(N5CCOCC5)nc4)C[C@@H]32)Nc2ccccc21` [Example 4], the “toxicity in the assay” value under setting [1] is reported as “little to no toxicity”.

For `O=C1N[C@]2(CC[C@@H]3CN(Cc4cc5c(cc4Cl)OCO5)C[C@@H]32)Nc2ccccc21` [Example 6], the “toxicity in the assay” value reads like this: (at 25 μM) “limited toxicity”; under setting [1], “little to no toxicity”.
